For experiment [1], the target named is T1, OBP7 (Acyrthosiphon pisum, UniProt A0A8R1TDD0).
T1 construct: gene 100160457; primers encode N-terminus (M)YLSEA, C-terminus EFLPL
T1 sequence (A0A8R1TDD0 31-155): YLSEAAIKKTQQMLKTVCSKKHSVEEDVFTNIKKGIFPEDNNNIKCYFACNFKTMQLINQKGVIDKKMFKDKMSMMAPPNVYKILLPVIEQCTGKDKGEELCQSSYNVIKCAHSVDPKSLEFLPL
Put plainly: biochemical. The note with it: for IC50: read-out: [IC]50 OBP7. Set-up: competitive fluorescence binding assay, displacement of 1-NPN (2 uM) from recombinant OBP (2 uM), pH 7.4. On the procedure: (§1) The probe was excited at 337 nm and emission spectra were recorded between 380 and 450 nm. […] For determining binding constants, the intensity values corresponding to the maximum of fluorescence emission were plotted against free ligand concentrations. The curves were drawn using the Prism software, that allowed calculation of the dissociation constants and the stoichiometry of binding, assuming that the protein was 100% active. […] Supplementary file pone.0032759.s002.doc: Table S1 Binding properties of the ligands utilised in ligand binding assays and behaviour experiments. For each protein, [IC]50 reports the concentration of ligand that halves the initial fluorescence intensity (both protein and 1-NPN were used at the concentration of 2 µM). Dissociation constants are calculated as reported in the Materials and Methods section. The structures of “CAU” ligands are reported in Table 1, those of “LIG” chemicals in Figure 3. […] (DOC) Click here for additional data file.

Experiment [2] has as its target T2, OBP3 (Acyrthosiphon pisum, UniProt A0A8R1XHB4).
T2 construct: construct not detailed here
T2 sequence (A0A8R1XHB4 24-141 limits assumed): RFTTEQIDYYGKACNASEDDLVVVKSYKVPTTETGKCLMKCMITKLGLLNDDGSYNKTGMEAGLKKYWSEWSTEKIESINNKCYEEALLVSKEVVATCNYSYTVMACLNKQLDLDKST
Set-up: competitive fluorescence binding assay, displacement of 1-NPN (2 uM) from recombinant OBP (2 uM), pH 7.4. The conditions noted are these: binder. Here is the method:
as §1

Another experiment addresses T3, OBP6 (Acyrthosiphon pisum, UniProt A0A8R1TDN2).
T3 sequence (A0A8R1TDN2 1-160): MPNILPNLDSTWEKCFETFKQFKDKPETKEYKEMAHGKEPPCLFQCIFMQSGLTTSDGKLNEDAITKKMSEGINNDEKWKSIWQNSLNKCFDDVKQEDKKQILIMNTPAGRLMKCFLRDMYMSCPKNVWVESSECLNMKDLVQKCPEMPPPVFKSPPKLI
Put plainly: biochemical. Set-up: competitive fluorescence binding assay, displacement of 1-NPN (2 uM) from recombinant OBP (2 uM), pH 7.4. Here is the method:
The probe was excited at 337 nm and emission spectra were recorded between 380 and 450 nm. […] For determining binding constants, the intensity values corresponding to the maximum of fluorescence emission were plotted against free ligand concentrations. The curves were drawn using the Prism software, that allowed calculation of the dissociation constants and the stoichiometry of binding, assuming that the protein was 100% active. […] Supplementary file pone.0032759.s002.doc: Table S1 Binding properties of the ligands utilised in ligand binding assays and behaviour experiments. For each protein, [IC]50 reports the concentration of ligand that halves the initial fluorescence intensity (both protein and 1-NPN were used at the concentration of 2 µM). Dissociation constants are calculated as reported in the Materials and Methods section. The structures of “CAU” ligands are reported in Table 1, those of “LIG” chemicals in Figure 3. Blank cells indicate values of [IC]50 higher than 30 µM. For these compounds dissociation constants have not been calculated. (DOC) Click here for additional data file.

Experiment [3] concerns the target T2, OBP3. Put plainly: competitive displacement of 1-NPN fluorescence. Format: binding. The note with it: 50 mM Tris-HCl pH 7.4, 25°C; protein and 1-NPN 2 µM; KD calculated from IC50.
For experiment [4], the target named is T1, OBP7. Put plainly: competitive displacement of 1-NPN fluorescence. The note with it: 50 mM Tris-HCl pH 7.4, 25°C; protein and 1-NPN 2 µM; KD calculated from IC50. The format is binding.

Regarding `CC(C)CCOC(=O)CCCc1ccccc1` [LIG-8], the Kd at OBP7 [1] was 2.8 µM; on OBP3 [2] it was 10.7 µM. Besides, the IC50 on OBP7 [1] came to 5.5 µM; on OBP3 [2] (read-out: [IC]50 OBP3) it was 14 µM.

Take `CC(C)CCCC(C)CCOC(=O)c1ccccc1` (centres unmarked) [LIG-4]: the IC50 at OBP7 [1] was 2.5 µM; at OBP6 (read-out: [IC]50 OBP6) it was 16.1 µM. Besides, on OBP6, the Kd stood at 13.9 µM.

`CC(=O)OC/C=C(\C)CCC=C(C)C` [LIG-7]: on OBP7 [1], the dissociation constant (Kd) was 9.3 µM and the IC50 turned out to be 18 µM.

On to `C=CC(=C)CC/C=C(\C)CCC=C(C)C` [(E)-ß-farnesene], for which the KD result is “including (E)-ß-farnesene and structurally similar molecules, bind only OBP3 and/or OBP7” on OBP3 [3]; “including (E)-ß-farnesene and structurally similar molecules, bind only OBP3 and/or OBP7” at OBP7 [4].

(Values after paper PMC3299684, “Two Odorant-Binding Proteins Mediate the Behavioural Response of Aphids to the Alarm Pheromone (E)-ß-farnesene and Structural Analogues” (PLoS ONE, 2012).)
